The term IC50 denotes the concentration that gives 50% inhibition.

For the first assay, the target named is T1, recombinant caspase 3 (Homo sapiens, UniProt P42574).
T1 construct: His tag (C); made in house; host or cells: E. coli
T1 sequence (P42574 29-175 limits assumed): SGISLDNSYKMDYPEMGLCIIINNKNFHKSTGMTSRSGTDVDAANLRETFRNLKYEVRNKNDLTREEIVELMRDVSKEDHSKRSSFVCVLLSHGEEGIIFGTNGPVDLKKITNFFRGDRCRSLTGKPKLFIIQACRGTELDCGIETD
T1 sequence (P42574 176-277 limits assumed): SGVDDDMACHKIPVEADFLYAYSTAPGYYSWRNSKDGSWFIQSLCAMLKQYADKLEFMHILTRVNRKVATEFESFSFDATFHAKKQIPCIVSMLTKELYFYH
The assay can be described thus: Caspase 3 Inhibition Assay (Ac-DEVD-AFC fluorogenic substrate cleavage). The following applies: @ 1 μM compound; recombinant caspase 3, Ac-DEVD-AFC 25 μM, pH 7.2, 23° C.; read-out: percent inhibition at the highest compound concentration. Format: biochemical. The protocol:
Caspase 3 was expressed intracellularly in E. coli with a c-terminal His tag. Fermentation was performed at 25° C. in a B. Braun Biotech Biostat C 10 liter bioreactor vessel. The culture was collected in IL bottles and centrifuged in Komspin KA-7.1000 rotors at approximately 8000 RCF (Relative Centrifugal Force). The cell pellets were re-suspended in 20 mM Tris pH 8.0, 500 mM NaCl, and 5 mM imidazole. The cell suspension was disrupted by passing 5 times through a microfluidizer Model 110Y (Microfluidics Corp, Newton, Mass). After centrifugation (13 kg, 30 min at 4 C), the supernatant was applied to a column of Nickle-NTA agarose. The Caspase 3 was eluted with a gradient of 5 mM to 150 mM imidazole in the above buffer. Fractions containing Caspase 3 were pooled and concentrated with a Millipore Ultrafree filtration device. The concentrated Caspase 3 solution was loaded unto a TSK gel G3000sw column (Tosoh Bioseph LLC), equilibrated with a buffer of 20 mM PIPES pH 7.2, 100 mM NaCl, 1 mM EDTA & 5 mM Cysteine. Fractions containing Caspase 3 were pooled and concentrated. Sometimes CHAPS was added to 0.1% and sucrose to 10% into the protein sample.
Caspase 3 was assayed at 23° C. (room temp) in 96-well plates using the internally quenched tetrapeptide substrate N-acetyl-aspartyl-glutamyl-valyl-aspartate-7-amino-4-trifluoromethyl coumarin (Ac-DEVD-AFC purchased from Biomol). The assays are conducted at pH 7.2 in a buffered system containing 20 mM PIPES, 100 mM NaCl, 1 mM EDTA, 0.1% CHAPS, 10% sucrose and 5 mM L-cysteine. […] A steady state rate of substrate cleavage is obtained for analysis.
The progress curves generated were fitted by computer to equation 1 to generate an IC50 value. Equation 1: y=Bmax*(1−(x^n/(K^n+x^n))), where Bmax is rate in the absence of inhibitor.
Turning to `COC[C@@H]1CCCN1C(=O)c1ccc2c(c1)C(=O)C1=NCC(C)(C)CN12` [Example 75, 8-{[(2S)-2-(Methoxymethyl)pyrrolidin-1-yl]carbonyl}-3,3-dimethyl-3,4-dihydropyrimido[1,2-a]indol-10(2H)-one], the inhibition at 1 µM was found to be 10%.

Still in this assay, the particulars now being: @ 50 μM compound; recombinant caspase 3, Ac-DEVD-AFC 25 μM, pH 7.2, 23° C.; read-out: percent inhibition at the highest compound concentration.
`CC1(C)CN=C2C(=O)c3cc(S(=O)(=O)N4CCC[C@H]4COc4cccnc4Br)ccc3N2C1` [Example 35, 8-[((2S)-2-{[(2-Bromopyridin-3-yl)oxy]methyl}pyrrolidin-1-yl)sulfonyl]-3,3-dimethyl-3,4-dihydropyrimido[1,2-a]indol-10(2H)-one]: the inhibition at 50 µM came out at 26%. Same read-out and setting: then `CC1(C)CN=C2C(=O)c3cc(C(=O)Nc4ccccc4)ccc3N2C1` [Example 76, 3,3-Dimethyl-10-oxo-N-phenyl-2,3,4,10-tetrahydropyrimido[1,2-a]indole-8-carboxamide], with 36%. In the case of `Cc1ccc2c(c1)C(=O)C1=NCCCN12` [Example 10, 8-Methyl-3,4-dihydropyrimido[1,2-a]indol-10(2H)-one], the inhibition at 50 µM was 10%. On the same count and under the same terms, the figure for `CC(=O)N1CCN(C(=O)c2ccc3c(c2)C(=O)C2=NCC(C)(C)CN23)CC1` [Example 82, 8-[(4-Acetylpiperazin-1-yl)carbonyl]-3,3-dimethyl-3,4-dihydropyrimido[1,2-a]indol-10(2H)-one] is 28%; for `CN1CCN(C(=O)c2ccc3c(c2)C(=O)C2=NCC(C)(C)CN23)CC1` [Example 81, 3,3-Dimethyl-8-[(4-methylpiperazin-1-yl)carbonyl]-3,4-dihydropyrimido[1,2-a]indol-10(2H)-one] it is 29%. The same measure, in the same setting: then `CC1(C)CN=C2C(=O)c3cc(C(=O)N4CCCC4)ccc3N2C1` [Example 78, 3,3-Dimethyl-8-(pyrrolidin-1-ylcarbonyl)-3,4-dihydropyrimido[1,2-a]indol-10(2H)-one], with 37%; and `CC1(C)CN=C2C(=O)c3cc(C(=O)N4CCc5ccccc54)ccc3N2C1` [Example 80, 8-(2,3-Dihydro-1H-indol-1-ylcarbonyl)-3,3-dimethyl-3,4-dihydropyrimido[1,2-a]indol-10(2H)-one], with 46%. Same read-out and setting: then `COc1ccc2c(c1)C(=O)C1=NCCCN12` [Example 11, 8-Methoxy-3,4-dihydropyrimido[1,2-a]indol-10(2H)-one], with 9%.

Still in this assay, the particulars now being: recombinant caspase 3 0.25 nM, Ac-DEVD-AFC 25 μM, pH 7.2, 23° C.
Take `CC1(C)CN=C2C(=O)c3cc(S(=O)(=O)N4CCC[C@H]4COc4cccnc4Cl)ccc3N2C1` [Example 43, 8-[((2S)-2-{[(2-Chloropyridin-3-yl)oxy]methyl}pyrrolidin-1-yl)sulfonyl]-3,3-dimethyl-3,4-dihydropyrimido[1,2-a]indol-10(2H)-one]: the IC50 turned out to be 7 nM.

Turning to `CC1(C)CN=C2C(=O)c3cc(S(=O)(=O)N4c5ccccc5C[C@H]4COc4ccccc4)ccc3N2C1` [Example 34, 3,3-Dimethyl-8-{[(2S)-2-(phenoxymethyl)-2,3-dihydro-1H-indol-1-yl]sulfonyl}-3,4-dihydropyrimido[1,2-a]indol-10(2H)-one], the IC50 is 1210 nM. With `Cc1ccc(OC[C@@H]2CCCN2S(=O)(=O)c2ccc3c(c2)C(=O)C2=NCC(C)(C)CN23)c(Cl)c1` [Example 26, 8-({(2S)-2-[(2-Chloro-4-methylphenoxy)methyl]pyrrolidin-1-yl}sulfonyl)-3,3-dimethyl-3,4-dihydropyrimido[1,2-a]indol-10(2H)-one], the IC50 turned out to be 98 nM. Same read-out and setting: then `Cc1ccc(OC[C@@H]2CCCN2S(=O)(=O)c2ccc3c(c2)C(=O)C2=NCC(C)(C)CN23)cc1` [Example 24, 3,3-Dimethyl-8-({(2S)-2-[(4-methylphenoxy)methyl]pyrrolidin-1-yl}sulfonyl)-3,4-dihydropyrimido[1,2-a]indol-10(2H)-one], with 49 nM; and `O=C1C2=NCCCN2c2cc(Cl)c([N+](=O)[O-])cc21` [Example 15, 7-Chloro-8-nitro-3,4-dihydropyrimido[1,2-a]indol-10(2H)-one], with 4590 nM. Still for that read-out and setting: the figure for `Cc1ccc(S(=O)(=O)Nc2ccc3c(c2)C(=O)C2=NCC(C)(C)CN23)cc1` [Example 51, N-(3,3-Dimethyl-10-oxo-2,3,4,10-tetrahydropyrimido[1,2-a]indol-8-yl)-4-methylbenzenesulfonamide] is 714 nM; for `CC1(C)CN=C2C(=O)c3cc(S(=O)(=O)N4CCC[C@H]4COc4cccc(Cl)n4)ccc3N2C1` [Example 40, 8-[((2S)-2-{[(6-Chloropyridin-2-yl)oxy]methyl}pyrrolidin-1-yl)sulfonyl]-3,3-dimethyl-3,4-dihydropyrimido[1,2-a]indol-10(2H)-one] it is 5 nM; for `CC1(C)CN=C2C(=O)c3cc(NS(=O)(=O)c4ccc(Cl)c(Cl)c4)ccc3N2C1` [Example 53, 3,4-Dichloro-N-(3,3-dimethyl-10-oxo-2,3,4,10-tetrahydropyrimido[1,2-a]indol-8-yl)benzenesulfonamide] it is 233 nM. Same read-out and setting: the figure for `CC1(C)CN=C2C(=O)c3cc(C#N)ccc3N2C1` [Example 20, 3,3-Dimethyl-10-oxo-2,3,4,10-tetrahydropyrimido[1,2-a]indole-8-carbonitrile] is 99 nM; for `CC1(C)CN=C2C(=O)c3cc(NS(=O)(=O)c4cccc(Br)c4)ccc3N2C1` [Example 50, 3-Bromo-N-(3,3-dimethyl-10-oxo-2,3,4,10-tetrahydropyrimido[1,2-a]indol-8-yl)benzenesulfonamide] it is 23.4 nM. Regarding `CC(=O)c1ccc(OC[C@@H]2CCCN2S(=O)(=O)c2ccc3c(c2)C(=O)C2=NCC(C)(C)CN23)c(C)c1` [Example 27, 8-({(2S)-2-[(4-Acetyl-2-methylphenoxy)methyl]pyrrolidin-1-yl}sulfonyl)-3,3-dimethyl-3,4-dihydropyrimido[1,2-a]indol-10(2H)-one], the IC50 was 55 nM. Still for that read-out and setting: the figure for `Cc1ccc(OC[C@@H]2CCCN2S(=O)(=O)c2ccc3c(c2)C(=O)C2=NCC(C)(C)CN23)c(I)n1` [Example 46, 8-[((2S)-2-{[(2-Iodo-6-methylpyridin-3-yl)oxy]methyl}pyrrolidin-1-yl)sulfonyl]-3,3-dimethyl-3,4-dihydropyrimido[1,2-a]indol-10(2H)-one] is 17 nM; for `CC1(C)CN=C2C(=O)c3cc(NS(=O)(=O)c4ccc(F)c(Cl)c4)ccc3N2C1` [Example 52, 3-Chloro-N-(3,3-dimethyl-10-oxo-2,3,4,10-tetrahydropyrimido[1,2-a]indol-8-yl)-4-fluorobenzenesulfonamide] it is 285 nM. Still for that read-out and setting: then `CC1(C)CN=C2C(=O)c3cc(Cl)ccc3N2C1` [Example 14, 8′-Chloro-3′,3′-dimethyl-3′,4′-dihydropyrimido[1,2-a]indol-10(2H)-one], with 874 nM; and `CN1CCN(C[C@@H]2CCCN2S(=O)(=O)c2ccc3c(c2)C(=O)C2=NCC4(CCCC4)CN23)CC1` [Example 84, 8′-({(2S)-2-[(4-Methylpiperazin-1-yl)methyl]pyrrolidin-1-yl}sulfonyl)spiro[cyclopentane-1,3′-pyrimido[1,2-a]indol]-10′(2′H)-one], with 30 nM; and `CC1(C)CN=C2C(=O)c3cc(C(=O)N4CCCCC4)ccc3N2C1` [Example 79, 3,3-Dimethyl-8-(piperidin-1-ylcarbonyl)-3,4-dihydropyrimido[1,2-a]indol-10(2H)-one], with 21000 nM. On to `CC1(C)CN=C2C(=O)c3cc(S(=O)(=O)N4CCC[C@H]4COc4cccc(C(F)(F)F)c4)ccc3N2C1` [Example 31, 3,3-Dimethyl-8-[((2S)-2-{[3-(trifluoromethyl)phenoxy]methyl}pyrrolidin-1-yl)sulfonyl]-3,4-dihydropyrimido[1,2-a]indol-10(2H)-one], for which the IC50 is 45 nM. As to `COC[C@@H]1CCCN1S(=O)(=O)c1cc2c(cc1Cl)N1CCCN=C1C2=O` [Example 5, 7-Chloro-8-{[(2S)-2-(methoxymethyl)pyrrolidin-1-yl-]sulfonyl}-3,4-dihydropyrimido[1,2-a]indol-10(2H)-one], the IC50 was found to be 189 nM.

In the case of `CC1(C)CN=C2C(=O)c3cc(NS(=O)(=O)c4cc(C(F)(F)F)cc(C(F)(F)F)c4)ccc3N2C1` [Example 62, N-(3,3-Dimethyl-10-oxo-2,3,4,10-tetrahydropyrimido[1,2-a]indol-8-yl)-3,5-bis(trifluoromethyl)benzenesulfonamide], the half-maximal inhibitory concentration (IC50) came to 3140 nM.
